Key:
[1] = tested on: GNS cells (G411 and G362); test: Autophagy markers (LC3B, p62) by western blot and immunofluorescence; format: cell-based, human; details: for levels of LC3B-II: L-741,742 10 μM, PNU 96415E 25 μM, G411 and G362; for LC3-II levels in the presence of chloroquine compared to control: chloroquine 30 μM, 48 h, G411; for autophagy substrate p62: treated GNS cells (G411)
Method: Western blots were performed using the following antibodies; anti-DRD4 antibody at 1:750 (Millipore# MABN125), anti-activated MAPK at 1:2500 (Promega#V803A), anti-ERK1/2 at 1:2000 (Promega#V114A), anti-βactin at 1:10,000 (Sigma), anti-LC3B at 1:1000 (Cell Signaling #3868), anti-p62 at 1:1000 (BD Bioscience), anti-LAMP1 at 1:2000 (Developmental Studies Hybridoma Bank), anti-mono and polyubiquitinylated protein conjugates (FK2) at 1:1000 (Enzo Life Sciences).

GNS cells = test: Caspase 3/7 activity and cleaved PARP in treated GNS cells; format: cell-based, human
[2] = tested on: freshly isolated primary GBM patient tumour cells; test: Primary in vitro limiting dilution assay (LDA), neurosphere formation; format: cell-based, human; details: L-741,742 10 μM, PNU 96415E 25 μM, 14 days, n=3 patient tumours
Method: (§1) Limiting dilution assay was performed as described previously (Tropepe et al., 1999. Developmental Biology 208, 166-188). Primary tumours were dissociated into single cell suspension and seeded into a 96-well plate with 10 point-2 fold serial dilution starting from 2000 cells to 4 cells/well, 6 wells for each dilution per plate. Each well was scored for neurosphere formation after 14 days of incubation. Percent of wells not containing spheres for each cell density was calculated and plotted against the cells per well, regression lines were plotted and x-intercept value at 0.37 was calculated at 95% confidence interval using Sigma Plot, which gives the number of cells required to form at least one neurosphere.

[3] = tested on: GNS cells (GBM-derived neural stem cells); test: Secondary screen / dose response curve, Alamar Blue cell viability, five days; format: cell-based, human; details: for IC50: six GNS and four NS lines, IC50 based on approximate observed value, read-out: potency (IC50), growth inhibition of GNS cells
Method: (§2) GNS and NS lines were grown as an adherent monolayer culture in serum free medium as described previously (Pollard et al. 2009. Cell stem cell 4, 568-580). Primary tumour cells were freshly dissociated from the patient sample in artificial cerebrospinal fluid followed by treatment with an enzyme cocktail at 37° C. (Singh et al. 2003. Cancer research 63, 5821-5828). BJ fibroblast, Daoy and C8-D1A and U-2 0S (ATCC) were maintained in DMEM with 10% FBS.
(§3) Cells were seeded in laminin-coated 384 well plates at a density of 2000 cells per well. Compounds were added at a concentration of approximately 5 μM and incubated with cells for five days at 37° C. Cell viability was assessed by measuring Alamar Blue incorporation according to the manufacturer's protocol (Invitrogen). Percent growth inhibition was calculated relative to the control DMSO wells.
(§4) The potency and selectivity of hits from the primary screen was tested in 8-point two-fold dilution series ranging from 50 μM-0.39 μM concentrations with more lines of GNS, NS and fibroblast. Experimental conditions were the same as in primary screen. IC50 was calculated based on an approximate observed value. Fold selectivity was calculated as IC50 of BJ/IC50 of any GNS cells with lowest IC50.

G411 and G362 cells = test: Cell cycle analysis by flow cytometry of DNA content; format: cell-based, human; details: L-741,742 10 μM, PNU 96415E 25 μM, time dependent
[4] = tested on: non-NS control cells (BJ fibroblast, Daoy, U-2 0S, C8-D1A); test: Dose response cell viability in non-NS control cell lines; format: cell-based; details: highest concentration tested 50 μM
Method: as §2, §3, §4

[5] = tested on: colony forming cells of in vivo treated tumours; test: In vitro LDA of in vivo treated xenograft tumours; design: species or system mouse; details: tumours treated in vivo 20 mg/kg i.p.; vehicle treated tumours 1 in every 11 cells
Method: All mouse procedures were approved by the Hospital for Sick Children's Animal Care Committee. To validate the in vivo effect of L-741,742 and PNU 96415E, 2×10^5 GNS cells in 200 μl of PBS and matrigel (1:1) were injected subcutaneously into flanks of non-obese diabetic/severe combined immunodeficient (NOD/SCID) female mice. 8 mice (2 tumours per mouse except for one mouse in control group that has one tumour) were maintained for each group; control (15 tumours), L-741,742 (16 tumours) and PNU 96415E (16 tumours). L-741,742 and PNU 96415E were dissolved in 40% 2 hydroxy β-cyclodextrin (Sigma). Mice were treated three days after tumour implantation. […] Tumour growth was monitored with microcalipers until tumour volume reached 17 mm in any one tumour from any group and all mice were sacrificed at the same end point. Dissected tumour volume was measured and mass was determined by weighing.
as §1, with “Primary tumours were dissociated into single cell suspension and seeded into a 96-well plate with 10 point-2 fold serial dilution starting from 2000 cells to 4 cells/well, 6 wells for each dilution per plate.” left out

[6] = tested on: GNS cells (G362) subcutaneous tumour; test: Patient derived subcutaneous xenograft (G362); format: in vivo, mouse; details: 20 mg/kg i.p., five days on and two days off, vs vehicle
Method: All mouse procedures were approved by the Hospital for Sick Children's Animal Care Committee. To validate the in vivo effect of L-741,742 and PNU 96415E, 2×10^5 GNS cells in 200 μl of PBS and matrigel (1:1) were injected subcutaneously into flanks of non-obese diabetic/severe combined immunodeficient (NOD/SCID) female mice. 8 mice (2 tumours per mouse except for one mouse in control group that has one tumour) were maintained for each group; control (15 tumours), L-741,742 (16 tumours) and PNU 96415E (16 tumours). L-741,742 and PNU 96415E were dissolved in 40% 2 hydroxy β-cyclodextrin (Sigma). Mice were treated three days after tumour implantation. Both L-741,742 and PNU 96415E were injected (20 mg/kg) i.p for 5 days on two days off until the end point. Control group was injected with 40% 2 hydroxy β-cyclodextrin. Tumour growth was monitored with microcalipers until tumour volume reached 17 mm in any one tumour from any group and all mice were sacrificed at the same end point. Dissected tumour volume was measured and mass was determined by weighing.

[7] = tested on: ERK1/2 phosphorylation in GNS (G362) cells; test: Phospho-kinase antibody array; format: cell-based, human; details: L-741,742 10 μM, PNU 25 μM, 24 h
Method: A human phospho-kinase antibody array was purchased from R&D systems (Cat# ARY003). This array contains capture antibodies for 43 kinases in duplicate on nitrocellulose membrane. GNS (G362) and NS (hf5205) lines were treated with L-741,742 (10 μM) and PNU 96415E (25 μM) along with a DMSO control for 24 h, and cells were then processed according to the manufacturer's protocol. Signal intensity was quantified using ImageJ.

G481 cells = test: Combination/synergy screen with temozolomide, alamar blue; format: cell-based, human; details: five days, COMPUSYN, CI <1 indicates synergism
Method: (§5) 2000 GNS cells (G362 and G481) were seeded in a 96 well plate and treated with a combination of 6-point 2-fold dose series of either L-741,742 (6.25 μM-0.39 μM) or PNU 96415E (25 μM-1.56 μM) with 10-point 2-fold dose series of temozolomide (100 μM-0.39 μM) in 60 point combination doses. The cells were incubated with a combination of the two drugs for five days and then checked for cell viability using the alamar blue assay. Combination index (CI) plot and CI value was calculated for 5 point dose series in each combination using the programme COMPUSYN. Data points taken for COMPUSYN analysis are temozolomide (100, 50, 25, 12.5 and 6.25 μM) in combination with either L-741,742 (6.25, 3.12, 1.56, 0.78 and 0.39 μM) or PNU 96415E (25, 12.5, 6.25, 3.12 and 1.56 μM).

G362 cells = test: as above; format: cell-based, human; details: five days, COMPUSYN, CI <1 indicates synergism
Method: as §5

DRD4 receptor = molecular target: T1, DRD4 receptor (Homo sapiens, UniProt P21917); test: cAMP assay (ELISA-based) in GNS (G362) cells; format: cell-based; details: pretreatment 30 μM for 15 minutes, then forskolin 30 μM
T1 construct: endogenous in cells; host or cells: GNS line G362 (patient-derived glioblastoma neural stem cells)
T1 sequence (P21917 1-419): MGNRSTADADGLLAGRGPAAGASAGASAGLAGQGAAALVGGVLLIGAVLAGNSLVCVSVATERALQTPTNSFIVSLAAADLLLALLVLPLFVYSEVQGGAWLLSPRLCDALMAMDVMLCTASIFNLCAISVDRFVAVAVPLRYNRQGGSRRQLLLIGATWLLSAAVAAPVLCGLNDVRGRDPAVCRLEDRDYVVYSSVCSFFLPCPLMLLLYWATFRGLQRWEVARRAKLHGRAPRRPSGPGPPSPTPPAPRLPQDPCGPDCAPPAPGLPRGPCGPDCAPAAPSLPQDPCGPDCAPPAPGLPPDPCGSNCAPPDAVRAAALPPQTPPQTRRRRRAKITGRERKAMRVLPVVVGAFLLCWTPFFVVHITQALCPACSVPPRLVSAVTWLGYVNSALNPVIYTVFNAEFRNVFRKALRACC
Method: cAMP levels were measured with an ELISA-based cAMP assay kit purchased from Cell Signaling (#4439). GNS (G362) cells were seeded overnight in a 96 well plate and treated with forskolin (30 μM) for 15 minutes, or pretreated with DRD4 agonist A412997 (30 μM) for 15 minutes followed by forskolin treatment. Cells were lysed and processed as per manufacturer's protocol.

[8] = dose response series 0.39-50 μM

## Cl.Cl.Fc1ccc(N2CCN(CCC3OCCc4ccccc43)CC2)cc1 (centres unmarked) [PNU 96415E]
[1]
  levels of LC3B-II: increase
  LC3-II levels in the presence of chloroquine compared to control: did not increase
  autophagy substrate p62: accumulated
GNS cells
  caspase 3/7 activity or cleaved PARP: no increase
[2]
  reduction in frequency of colony forming cells in comparison to the control: 19-29 fold
[3]; [8]
  selectivity against GNS cells compared to NS cells: 8 fold
[3]
  IC50: 6.25 µM
G411 and G362 cells
  effect on the cell cycle: G0/G1 arrest
[4]
  sensitivity of non-NS control cells: not sensitive even at the highest concentration tested
[5]
  colony forming cell frequency, 1 in every x cells: 43 cells
[6]
  average tumour weight at the end point reduced by: 44.3%
[7]
  reduction of ERK1/2 phosphorylation compared to the untreated control: 40%
G481 cells
  lowest combination index (CI) value in combination with TMZ: 0.32
G362 cells
  lowest combination index (CI) value in combination with TMZ: 0.56

## Clc1ccc(N2CCN(Cc3c[nH]c4ncccc34)CC2)cc1 [L-745,870]
[3]
  IC50: 3.1 to 6.2 µM

## PD168568
[3]
  IC50: 25 to 50 µM

## Cc1cccc(NC(=O)CN2CCC(c3ccccn3)CC2)c1 [A412997]
DRD4 receptor
  block of forskolin-induced cAMP response: 38%

## Cc1c(C2CCN(CCc3ccccc3)CC2)noc1-c1ccc(Cl)cc1 [L-741,742]
[1]
  levels of LC3B-II: increase
  LC3-II levels in the presence of chloroquine compared to control: did not increase
  autophagy substrate p62: accumulated
GNS cells
  caspase 3/7 activity or cleaved PARP: no increase
[2]
  reduction in frequency of colony forming cells in comparison to the control: 40-83 fold
[3]; [8]
  selectivity against GNS cells compared to NS cells: 8 fold
[3]
  IC50: 1.5 to 6.2 µM
G411 and G362 cells
  effect on the cell cycle: G0/G1 arrest
[5]
  colony forming cell frequency, 1 in every x cells: 76 cells
[6]
  average tumour weight at the end point reduced by: 40.9%
[7]
  reduction of ERK1/2 phosphorylation compared to the untreated control: 40%
G481 cells
  lowest combination index (CI) value in combination with TMZ: 0.28
G362 cells
  lowest combination index (CI) value in combination with TMZ: 0.29

## Br.Br.CN(CCc1ccc(Cl)c(Cl)c1)[C@@H]1CCCC[C@@H]1N1CCCC1 (racemic) [cis-(±)-N-Methyl-N-[2-(3,4-dichlorophenyl)ethyl]-2-(1-pyrrolidinyl)cyclohexamine 2HBr]
[3]; dose response series 0.39-50 μM, five days
  Fold selectivity towards GNS and NS cells compared to fibroblasts (IC50 of BJ/IC50 of any of the NS or GNS lines that showed the lowest IC50): 8 fold

## Ifenprodil tartrate
[3]; [8]
  selectivity against GNS cells compared to NS cells: 8 fold
